Assay results taken from ChEMBL document CHEMBL1147261, “Xanthanolides, germacranolides, and other constituents from Carpesium longifolium” (J Nat Prod, 2003).
In brackets after ≈: the same amount, converted by molar mass.

Key:
[1] = Cytotoxicity against human HO8910 cells by MTT assay; format: functional, cell-based; details: HO-8910
[2] = tested on: SMMC-7721; assay: Cytotoxicity against human SMMC7721 cells by MTT assay; format: functional, cell-based

Molecule `C=C1C(=O)O[C@@H]2C3O[C@]3(C)CC/C=C(\C)CC[C@@H]12` (stereo partly drawn) has an IC50 [1] of 1.37 µg/mL (≈ 5.52 µM) and an IC50 [2] of 4.2 µg/mL (≈ 16.9 µM).

Work on `COc1ccc(C2CC(=O)c3c(O)cc(OC)cc3O2)cc1` (stereo not drawn) yielded an IC50 [1] greater than 200 µg/mL and an IC50 [2] greater than 200 µg/mL.

Work on `C/C1=C\CC[C@@]2(C)O[C@@H]2[C@H]2OC(=O)[C@@H](C)[C@@H]2CC1` [11BETA,13-DIHYDRO-PARTHENOLIDE] yielded an IC50 [1] of 158 µg/mL (≈ 631 µM) and an IC50 [2] greater than 200 µg/mL.

`CC[C@]1(O)C[C@H]2CN(CCc3c([nH]c4ccccc34)[C@@](C(=O)OC)(c3cc4c(cc3OC)N(C=O)[C@H]3[C@@](O)(C(=O)OC)[C@H](OC(C)=O)[C@]5(CC)C=CCN6CC[C@]43[C@@H]65)C2)C1` [VINCRISTINE] gave an IC50 [1] of 1.37 µg/mL (≈ 1.66 µM) and an IC50 [2] of 20.7 µg/mL (≈ 25.1 µM).
